Like-named read-outs stand apart in the source and are kept apart here.
Tests used:
[1] = target: T1, NEU1 (Homo sapiens, UniProt Q99519); test: Inhibition assay, 4MU-NANA cleavage, NEU1; type: biochemical
T1 construct: His; made in house; host or cells: HEK293 cells (cell lysate, unpurified)
Method: (§1) 4MU-NANA was then added to the mixture, making the final concentration of 4MU-NANA as 50 μM and the total volume of the reaction mixture as 20 μL. […] Assays were performed with duplicates for each point and IC50 was obtained by plotting the data with Graphpad™ Prism 5.0.

[2] = target: T2, NEU3 (Homo sapiens, UniProt Q9UQ49); test: Inhibition assay, 4MU-NANA cleavage, NEU3; type: biochemical
T2 construct: MBP (N); made in house; host or cells: E. coli
T2 sequence (Q9UQ49 1-428): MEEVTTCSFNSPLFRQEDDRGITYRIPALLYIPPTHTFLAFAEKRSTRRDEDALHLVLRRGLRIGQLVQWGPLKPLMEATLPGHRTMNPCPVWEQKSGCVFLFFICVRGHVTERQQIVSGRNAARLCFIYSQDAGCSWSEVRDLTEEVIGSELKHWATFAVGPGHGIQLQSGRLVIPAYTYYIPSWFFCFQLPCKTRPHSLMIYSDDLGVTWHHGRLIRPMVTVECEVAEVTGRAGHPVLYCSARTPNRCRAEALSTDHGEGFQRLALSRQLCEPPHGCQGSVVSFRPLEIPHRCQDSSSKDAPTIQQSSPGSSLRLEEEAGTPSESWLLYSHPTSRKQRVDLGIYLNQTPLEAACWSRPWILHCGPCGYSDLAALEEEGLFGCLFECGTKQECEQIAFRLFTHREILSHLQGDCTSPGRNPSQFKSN
Method: as §1

[3] = target: T3, NEU4 (Homo sapiens, UniProt Q8WWR8); test: Inhibition assay, 4MU-NANA cleavage, NEU4; type: biochemical
T3 construct: GST; made in house; host or cells: E. coli
T3 sequence (Q8WWR8 1-484): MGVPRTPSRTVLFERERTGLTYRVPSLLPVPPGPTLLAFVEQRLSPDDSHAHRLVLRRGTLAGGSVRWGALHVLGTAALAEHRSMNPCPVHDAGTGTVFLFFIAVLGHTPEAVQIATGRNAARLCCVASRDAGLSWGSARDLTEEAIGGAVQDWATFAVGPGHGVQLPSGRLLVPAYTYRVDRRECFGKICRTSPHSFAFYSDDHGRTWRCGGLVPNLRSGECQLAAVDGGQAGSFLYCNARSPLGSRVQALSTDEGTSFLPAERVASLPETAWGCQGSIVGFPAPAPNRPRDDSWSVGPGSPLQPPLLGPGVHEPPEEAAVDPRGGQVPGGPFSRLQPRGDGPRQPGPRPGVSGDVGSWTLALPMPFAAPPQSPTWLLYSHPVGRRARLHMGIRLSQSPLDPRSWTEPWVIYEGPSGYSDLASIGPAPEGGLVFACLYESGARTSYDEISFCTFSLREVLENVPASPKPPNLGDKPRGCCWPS
Method: as §1

[4] = test system: NEU1, NEU2, NEU3, NEU4; test: Target isoenzyme and selectivity from IC50 data of Table I; type: biochemical, human; details: from IC50 values of Table I
[5] = target: T4, NEU2 (Homo sapiens, UniProt Q9Y3R4); test: Inhibition assay, 4MU-NANA cleavage, NEU2; type: biochemical; details: 4MU-NANA as the substrate; pH 5.5
T4 construct: MBP (N); made in house; host or cells: E. coli
T4 sequence (Q9Y3R4 whole entry): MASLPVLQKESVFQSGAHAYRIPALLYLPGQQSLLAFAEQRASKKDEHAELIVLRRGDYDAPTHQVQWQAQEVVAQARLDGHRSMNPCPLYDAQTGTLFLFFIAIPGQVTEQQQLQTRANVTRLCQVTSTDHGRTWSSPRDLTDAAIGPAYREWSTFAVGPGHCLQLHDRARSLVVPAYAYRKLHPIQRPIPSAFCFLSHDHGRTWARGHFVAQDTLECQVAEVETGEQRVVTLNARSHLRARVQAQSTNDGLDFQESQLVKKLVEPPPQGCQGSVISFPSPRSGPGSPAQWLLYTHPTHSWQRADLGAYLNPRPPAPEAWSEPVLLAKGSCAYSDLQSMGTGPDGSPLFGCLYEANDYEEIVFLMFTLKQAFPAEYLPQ
Method: as §1

[6] = 4MU-NANA as the substrate, pH 4.5, read-out: IC50 NEU1
[7] = compounds of Table I, read-out: IC50 against neu3
[8] = compounds of Table I, read-out: IC50 against neu4
[9] = 4MU-NANA as the substrate, pH 4.5, read-out: IC50 NEU3
[10] = 4MU-NANA as the substrate, pH 4.5, read-out: IC50 NEU4

IC50 [1, 6] [µM]	IC50 [3, 8] [µM]	IC50 [2, 9] [µM]	Compound	further results
0.55 ± 0.07	–	–	CCCCC(C)C(=O)N[C@H]1[C@H]([C@H](O)[C@H](O)CO)OC(C(=O)O)=C[C@@H]1O (mixture of isomers) [compound 72, 5-(2-Methyl)hexanamido(S/R)-2,6-anhydro-3,5-dideoxy-d-glycero-d-galacto-non-2-enonic acid]	–
0.42 ± 0.07	–	–	CCCCC(C)C(=O)N[C@H]1[C@H]([C@H](O)[C@H](O)CNC(C)=O)OC(C(=O)O)=C[C@@H]1O (mixture of isomers) [compound 74, 5-(2-Methyl)hexanamido(S/R)-9-acetanamido-2,6-anhydro-3,5-dideoxy-d-glycero-d-galacto-non-2-enonic acid]	–
–	–	–	CC(=O)N[C@@H]1C(N=[N+]=[N-])C=C(C(=O)O)OC1CNOCc1ccccc1 (stereo in doubt) [5c]	IC50 [2, 7]: < 1 µM
–	≤ 3	–	COc1ccc(-c2cn(C[C@@H](O)[C@@H](O)[C@@H]3OC(C(=O)O)=C[C@H](O)[C@H]3NC(C)=O)nn2)cc1 [7e]	–
–	≤ 3	–	CC(=O)N[C@H]1[C@H]([C@H](O)[C@H](O)Cn2cc(-c3ccc(F)cc3)nn2)OC(C(=O)O)=C[C@@H]1O [7f]	Selectivity [4]: 10
–	≤ 10	–	CC(=O)N[C@H]1[C@H]([C@H](O)[C@H](O)Cn2cc(-c3ccc(C(F)(F)F)cc3)nn2)OC(C(=O)O)=C[C@@H]1O [7g]	–
–	≤ 3	–	CC(=O)N[C@@H]1C(O)C=C(C(=O)O)OC1C(O)C(O)Cn1cc(-c2ccc(C(=O)O)cc2)nn1 (stereo partly shown) [7h]	–
–	< 1	–	CC(=O)N[C@@H]1C(O)C=C(C(=O)O)OC1C(O)C(O)Cn1cc(-c2ccc(-c3ccccc3)cc2)nn1 (stereo partly shown) [7i]	–
> 500	–	> 500	CCC(=O)N[C@H]1C=C(C(=O)O)O[C@@H]([C@H](O)[C@H](O)CO)[C@@H]1NC(C)=O [25a, 5-Acetamido-2,6-anhydro-4-propionamido-3,4,5-trideoxy-D-glycero-D-galacto-non-2-enonic acid]	IC50 [3, 10]: > 500 µM
> 500	–	> 500	CCCCC(=O)N[C@H]1C=C(C(=O)O)O[C@@H]([C@H](O)[C@H](O)CO)[C@@H]1NC(C)=O [25b, 5-Acetamido-2,6-anhydro-4-pentanamido-3,4,5-trideoxy-D-glycero-D-galacto-non-2-enonic acid]	IC50 [3, 10]: > 500 µM
> 500	–	> 500	CC(=O)N[C@H]1[C@H]([C@H](O)[C@H](O)CO)OC(C(=O)O)=C[C@@H]1NC(=O)C1CC1 [25c, 5-Acetamido-2,6-anhydro-4-cyclopropanecarboxamido-3,4,5-trideoxy-D-glycero-D-galacto-non-2-enonic acid]	IC50 [3, 10]: > 500 µM
> 500	–	> 500	CC(=O)N[C@H]1[C@H]([C@H](O)[C@H](O)CO)OC(C(=O)O)=C[C@@H]1NC(=O)C1CCC1 [25d, 5-Acetamido-2,6-anhydro-4-cyclobutanecarboxamido-3,4,5-trideoxy-D-glycero-D-galacto-non-2-enonic acid]	IC50 [3, 10]: > 500 µM
> 500	–	–	CC(=O)N[C@H]1[C@H]([C@H](O)[C@H](O)Cn2cc(-c3ccc(C(=O)O)cc3)nn2)OC(C(=O)O)=C[C@@H]1N=[N+]=[N-] [compound 13]	Selectivity [4]: 20; IC50 [5]: > 500 µM
> 500	–	> 500	CC(=O)NC1C(N)C=C(C(=O)O)OC1C(O)C(O)Cn1cc(-c2ccc(C(=O)O)cc2)nn1 (stereo not shown) [compound 15]	IC50 [3, 10]: > 500 µM; IC50 [5]: > 500 µM
> 500	–	> 500	CC(=O)NC1C(NC(=O)NCCC(=O)O)C=C(C(=O)O)OC1C(O)C(O)Cn1cc(-c2ccc(C(=O)O)cc2)nn1 (stereo not shown) [compound 18]	–
–	≤ 3	–	CC(=O)N[C@@H]1C(O)C=C(C(=O)O)OC1C(O)C(O)Cn1cc(CNC(=O)c2ccccc2)nn1 (stereo partly shown) [compound 26]	–
–	≤ 10	–	CC(=O)N[C@@H]1C(O)C=C(C(=O)O)OC1C(O)C(O)Cn1cc(-c2ccc(NC(=O)c3ccccc3)cc2)nn1 (stereo partly shown) [compound 27]	–
> 500	–	80 ± 10	CC(=O)N[C@H]1C(C(O)C(O)Cn2cc(CO)nn2)OC(C(=O)O)=C[C@H]1O (stereo partly shown) [compound 28, C9-4HMT-DANA]	IC50 [2, 7]: ≤ 100 µM
8.4 ± 0.5	≤ 10	15 ± 2	CCCC(=O)N[C@H]1[C@H]([C@H](O)[C@H](O)CO)OC(C(=O)O)=C[C@@H]1O [compound 30, 5-Butyramido-2,6-anhydro-3,5-dideoxy-D-glycero-D-galacto-non-2-enonic acid]	IC50 [3, 10]: 8.4 ± 0.4 µM; IC50 ([1]; compounds of Table I, read-out: IC50 against neu1): ≤ 10 µM
–	≤ 10	–	[N-]=[N+]=NCC(=O)N[C@@H]1C(O)C=C(C(=O)O)OC1C(O)C(O)CO (stereo partly drawn) [compound 40, 5-(N-2-azidoacetyl)-2,3,5-trideoxy-D-glycero-D-galacto-2-nonulopyranosonic acid]	–
–	–	–	CC(=O)Nc1ccc(C(=O)NC[C@@H](O)[C@@H](O)[C@@H]2OC(C(=O)O)=C[C@H](O)[C@H]2NC(C)=O)cc1 [compound 58, 5-Acetamido-9-(4-acetamido)benzamido-2,6-anhydro-3,5-dideoxy-d-glycero-d-galacto-non-2-enonic acid]	IC50 [2, 7]: ≤ 10 µM
–	–	–	CC(=O)Nc1cccc(C(=O)NC[C@@H](O)[C@@H](O)[C@@H]2OC(C(=O)O)=C[C@H](O)[C@H]2NC(C)=O)c1 [compound 60, 5-Acetamido-9-(3-acetamido)benzamido-2,6-anhydro-3,5-dideoxy-d-glycero-d-galacto-non-2-enonic acid]	IC50 [2, 7]: ≤ 10 µM
–	≤ 3	–	CCCCCc1cn(C[C@@H](O)[C@@H](O)[C@@H]2OC(C(=O)O)=C[C@H](O)[C@H]2NC(C)=O)nn1 [compound 63, 5-Acetamido-9-(4-pentyl)triazolyl-2,6-anhydro-3,5-dideoxy-d-glycero-d-galacto-non-2-enonic acid]	IC50 [2, 7]: ≤ 10 µM
–	–	> 500	CCCCCC(=O)NC[C@@H](O)[C@@H](O)[C@@H]1OC(C(=O)O)=C[C@H](O)[C@H]1NC(=O)CCCCC [compound 64, 5-Hexanamido-9-hexanamido-2,6-anhydro-3,5-dideoxy-d-glycero-d-galacto-non-2-enonic acid]	IC50 [3, 10]: > 500 µM
–	–	> 500	CCCCC(=O)NC[C@@H](O)[C@@H](O)[C@@H]1OC(C(=O)O)=C[C@H](O)[C@H]1NC(=O)CC [compound 65, 5-Propionamido-9-pentanamido-2,6-anhydro-3,5-dideoxy-D-glycero-D-galacto-non-2-enonic acid]	–
–	–	> 500	CCCCCC(=O)N[C@H]1[C@H]([C@H](O)[C@H](O)CNC(C)=O)OC(C(=O)O)=C[C@@H]1O [compound 68, 5-Hexanamido-9-acetamido-2,6-anhydro-3,5-dideoxy-D-glycero-D-galacto-non-2-enonic acid]	–
–	–	> 500	CCCCCC(=O)N[C@H]1[C@H]([C@H](O)[C@H](O)CNC(=O)CC)OC(C(=O)O)=C[C@@H]1O [compound 69, 5-Hexanamido-9-propionamido-2,6-anhydro-3,5-dideoxy-d-glycero-d-galacto-non-2-enonic acid]	–
–	–	> 500	CCCCCC(=O)N[C@H]1[C@H]([C@H](O)[C@H](O)CNC(=O)CCC)OC(C(=O)O)=C[C@@H]1O [compound 70, 5-Hexanamido-9-butanamido-2,6-anhydro-3,5-dideoxy-D-glycero-D-galacto-non-2-enonic acid]	IC50 [3, 10]: > 500 µM
